Assay results taken from PMC4786259 (PLoS ONE, 2016).

What was measured:
dopamine D2 receptor = molecular target: T1, dopamine D2 receptor (Homo sapiens, UniProt P14416); format: cell-based
T1 construct: expressed in transfected cells; host or cells: HEKT cells (ATCC)

5-HT2B = molecular target: T2, 5-HT2B (Homo sapiens, UniProt P41595); test: PDSP radioligand competition binding; conditions: radioligand [^3H]LSD; read-out: In Vitro Affinity
T2 construct: expressed in transfected cells

D5 = D5 (Homo sapiens, UniProt P21918); test: PDSP radioligand competition binding; conditions: radioligand [^3H]SCH23390
Sequence of D5 (P21918 whole entry, looked up): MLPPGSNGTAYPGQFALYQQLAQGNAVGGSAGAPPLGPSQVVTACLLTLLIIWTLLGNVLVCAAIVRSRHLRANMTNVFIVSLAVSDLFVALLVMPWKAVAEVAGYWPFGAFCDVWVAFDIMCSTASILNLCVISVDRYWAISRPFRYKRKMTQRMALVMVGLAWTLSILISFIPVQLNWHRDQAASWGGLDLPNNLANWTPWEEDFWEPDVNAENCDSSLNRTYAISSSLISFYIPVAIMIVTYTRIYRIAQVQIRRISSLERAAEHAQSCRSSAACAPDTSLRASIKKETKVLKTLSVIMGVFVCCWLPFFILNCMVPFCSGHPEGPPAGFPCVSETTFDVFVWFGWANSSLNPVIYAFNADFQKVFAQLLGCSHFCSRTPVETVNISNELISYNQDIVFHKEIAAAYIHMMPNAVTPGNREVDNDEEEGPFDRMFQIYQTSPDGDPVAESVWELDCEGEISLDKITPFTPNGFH

AmpC β-lactamase = AmpC β-lactamase (Escherichia coli, UniProt P00811); test: AmpC β-lactamase assay counterscreen for colloidal aggregation; conditions: <= 10 μM; data not shown
Sequence of AmpC β-lactamase (P00811 20-377): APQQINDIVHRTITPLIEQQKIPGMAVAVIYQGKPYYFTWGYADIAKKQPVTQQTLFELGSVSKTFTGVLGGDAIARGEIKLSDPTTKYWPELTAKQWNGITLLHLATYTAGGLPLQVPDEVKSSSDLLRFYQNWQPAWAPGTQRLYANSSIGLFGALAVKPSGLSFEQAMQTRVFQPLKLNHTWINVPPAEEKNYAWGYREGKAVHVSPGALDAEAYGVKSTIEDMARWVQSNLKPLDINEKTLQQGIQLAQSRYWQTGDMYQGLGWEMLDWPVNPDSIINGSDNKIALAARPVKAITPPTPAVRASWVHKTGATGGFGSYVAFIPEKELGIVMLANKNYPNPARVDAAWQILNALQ

V1A = V1A (Homo sapiens, UniProt P37288); test: PDSP radioligand competition binding; conditions: radioligand [^3H]Vasopressin; read-out: In vitro Affinity
Sequence of V1A (P37288 whole entry): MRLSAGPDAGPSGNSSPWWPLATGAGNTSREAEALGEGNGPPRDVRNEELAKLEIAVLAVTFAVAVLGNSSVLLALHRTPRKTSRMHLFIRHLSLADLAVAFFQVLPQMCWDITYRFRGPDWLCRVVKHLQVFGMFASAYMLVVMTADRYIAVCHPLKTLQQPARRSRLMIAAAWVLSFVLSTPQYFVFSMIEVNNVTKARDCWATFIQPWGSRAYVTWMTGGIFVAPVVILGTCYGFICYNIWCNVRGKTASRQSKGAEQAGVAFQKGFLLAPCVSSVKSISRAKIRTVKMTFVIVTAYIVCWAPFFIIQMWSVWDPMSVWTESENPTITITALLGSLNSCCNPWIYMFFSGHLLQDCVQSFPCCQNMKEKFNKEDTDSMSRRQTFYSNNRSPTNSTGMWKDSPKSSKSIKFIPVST

male C57BL/6J mice = test: Catalepsy, inclined screen test; conditions: for latency to movement: nuciferine 10.0 mg/kg i.p.
α2C = α2C (Homo sapiens, UniProt P18825); test: PDSP radioligand competition binding; conditions: radioligand [^3H]Rauwolscine; read-out: In vitro Affinity
hDAT = hDAT (Homo sapiens, UniProt Q01959); test: Whole cell 3H-dopamine uptake in HEK-DAT cells
Sequence of hDAT (Q01959 whole entry): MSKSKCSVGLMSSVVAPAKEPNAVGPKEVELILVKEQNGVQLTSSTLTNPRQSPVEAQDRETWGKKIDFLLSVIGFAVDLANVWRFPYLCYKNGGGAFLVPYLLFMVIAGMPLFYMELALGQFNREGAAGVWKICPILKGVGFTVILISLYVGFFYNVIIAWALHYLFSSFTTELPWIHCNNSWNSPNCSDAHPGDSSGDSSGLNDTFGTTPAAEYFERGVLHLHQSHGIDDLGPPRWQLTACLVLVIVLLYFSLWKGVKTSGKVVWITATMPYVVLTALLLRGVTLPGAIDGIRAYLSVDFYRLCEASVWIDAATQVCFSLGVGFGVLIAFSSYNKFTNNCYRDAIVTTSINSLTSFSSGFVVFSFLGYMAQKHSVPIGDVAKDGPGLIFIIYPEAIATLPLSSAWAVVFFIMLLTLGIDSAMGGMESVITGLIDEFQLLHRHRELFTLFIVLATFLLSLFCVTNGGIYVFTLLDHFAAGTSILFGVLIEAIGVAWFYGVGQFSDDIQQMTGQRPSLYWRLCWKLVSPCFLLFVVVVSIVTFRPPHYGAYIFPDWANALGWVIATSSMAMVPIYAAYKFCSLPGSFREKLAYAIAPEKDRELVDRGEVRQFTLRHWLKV
Method: (§1) Cell culture: HEK293 cells (ATCC) lines stably expressing hDAT or hDAT and hVMAT2 constructs were cultured at 37°C and 5% CO2 in DMEM with 10% FBS.
(§2) Whole cell ^3H-dopamine (DA) uptake: Cells were plated into 48-well plates one day before uptake was performed. […] After incubation, 25 μl uptake buffer containing ^3H-DA and DA was added for a final concentration of 20 nM ^3H-DA and 1 μM DA. Cells were incubated at 37°C for 20 minutes or for the time indicated. Nonspecific uptake was determined in the presence of 10 μM nomifensine. Uptake was terminated by aspirating uptake buffer and washing each well twice with 0.5 ml ice-cold uptake buffer. Cells were lysed in 0.1 N NaOH and transferred to vials containing 3 ml scintillation cocktail. Radioactivity was quantitated using a Beckman LS6500 counter. Data were analyzed in Graph Pad Prism 5.0.

5-HT6 [1] = molecular target: T3, 5-HT6 (Homo sapiens, UniProt P50406); test: PDSP radioligand competition binding; conditions: radioligand [^3H]LSD; read-out: In Vitro Affinity
T3 construct: expressed in transfected cells
T3 sequence (P50406 whole entry, species assumed): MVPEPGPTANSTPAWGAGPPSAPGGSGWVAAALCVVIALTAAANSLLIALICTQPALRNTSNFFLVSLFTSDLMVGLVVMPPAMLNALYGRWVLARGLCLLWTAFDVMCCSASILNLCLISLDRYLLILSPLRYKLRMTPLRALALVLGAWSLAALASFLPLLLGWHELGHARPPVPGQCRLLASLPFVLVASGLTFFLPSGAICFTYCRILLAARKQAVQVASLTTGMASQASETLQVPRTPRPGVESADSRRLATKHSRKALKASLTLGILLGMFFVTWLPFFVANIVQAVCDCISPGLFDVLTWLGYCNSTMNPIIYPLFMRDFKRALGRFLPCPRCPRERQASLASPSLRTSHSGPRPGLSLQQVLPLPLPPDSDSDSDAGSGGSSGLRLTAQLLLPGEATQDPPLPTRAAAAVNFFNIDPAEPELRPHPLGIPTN

5-HT1A = molecular target: T4, 5-HT1A (Homo sapiens, UniProt P08908); test: PDSP radioligand competition binding; conditions: radioligand [^3H]WAY100635; read-out: In Vitro Affinity
T4 construct: expressed in transfected cells
T4 sequence (P08908 1-422): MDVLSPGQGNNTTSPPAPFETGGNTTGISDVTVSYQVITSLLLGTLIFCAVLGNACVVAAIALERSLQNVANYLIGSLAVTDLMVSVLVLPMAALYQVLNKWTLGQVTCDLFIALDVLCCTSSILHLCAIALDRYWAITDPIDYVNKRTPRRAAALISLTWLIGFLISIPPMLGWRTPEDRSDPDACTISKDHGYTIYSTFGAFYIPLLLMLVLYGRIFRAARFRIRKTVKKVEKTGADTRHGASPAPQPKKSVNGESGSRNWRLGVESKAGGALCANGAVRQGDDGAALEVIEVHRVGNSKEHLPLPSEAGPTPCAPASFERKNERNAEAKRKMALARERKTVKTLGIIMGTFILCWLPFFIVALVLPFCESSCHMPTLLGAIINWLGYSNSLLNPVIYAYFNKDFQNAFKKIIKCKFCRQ

hDAT and hVMAT2 = test: Whole cell 3H-dopamine uptake in HEK-DAT/VMAT2 cells; conditions: nuciferine pre-treatment
Method: as §1, §2

5-HT2C = molecular target: T5, 5-HT2C (Homo sapiens, UniProt P28335); test: PDSP receptor functional assay; format: cell-based
T5 construct: expressed in transfected cells
T5 sequence (P28335 33-458): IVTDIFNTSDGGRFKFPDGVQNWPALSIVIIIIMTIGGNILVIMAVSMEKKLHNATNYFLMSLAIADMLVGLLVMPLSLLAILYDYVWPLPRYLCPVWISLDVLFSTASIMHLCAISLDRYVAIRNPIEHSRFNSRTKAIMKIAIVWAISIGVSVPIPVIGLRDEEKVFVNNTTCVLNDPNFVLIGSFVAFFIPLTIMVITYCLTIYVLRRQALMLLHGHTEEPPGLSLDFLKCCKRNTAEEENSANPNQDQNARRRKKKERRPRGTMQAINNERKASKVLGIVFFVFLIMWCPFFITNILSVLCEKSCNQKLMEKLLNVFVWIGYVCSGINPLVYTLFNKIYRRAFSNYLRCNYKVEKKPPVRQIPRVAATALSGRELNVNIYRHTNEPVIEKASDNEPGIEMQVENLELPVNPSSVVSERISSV

male NIH Swiss mice = test: DOI drug discrimination; format: in vivo
5-HT2A = molecular target: T6, 5-HT2A (Homo sapiens, UniProt P28223); test: PDSP receptor functional assay; format: cell-based
T6 construct: expressed in transfected cells
T6 sequence (P28223 whole entry, looked up): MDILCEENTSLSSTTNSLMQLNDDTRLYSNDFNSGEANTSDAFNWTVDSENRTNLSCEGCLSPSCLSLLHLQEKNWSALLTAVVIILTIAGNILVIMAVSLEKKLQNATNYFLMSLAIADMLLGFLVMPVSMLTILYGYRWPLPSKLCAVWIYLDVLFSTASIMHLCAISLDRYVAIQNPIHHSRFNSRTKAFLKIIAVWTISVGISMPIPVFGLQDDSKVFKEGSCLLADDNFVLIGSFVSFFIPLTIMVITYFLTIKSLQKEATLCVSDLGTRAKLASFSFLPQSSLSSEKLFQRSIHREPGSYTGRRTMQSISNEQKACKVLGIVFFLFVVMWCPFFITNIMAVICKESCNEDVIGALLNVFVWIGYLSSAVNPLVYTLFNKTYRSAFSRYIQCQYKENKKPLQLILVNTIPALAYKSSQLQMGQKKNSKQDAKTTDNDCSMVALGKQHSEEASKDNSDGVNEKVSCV

D4 = molecular target: T7, D4 (Homo sapiens, UniProt P21917); test: PDSP receptor functional assay; format: cell-based
T7 construct: expressed in transfected cells
T7 sequence (P21917 1-419): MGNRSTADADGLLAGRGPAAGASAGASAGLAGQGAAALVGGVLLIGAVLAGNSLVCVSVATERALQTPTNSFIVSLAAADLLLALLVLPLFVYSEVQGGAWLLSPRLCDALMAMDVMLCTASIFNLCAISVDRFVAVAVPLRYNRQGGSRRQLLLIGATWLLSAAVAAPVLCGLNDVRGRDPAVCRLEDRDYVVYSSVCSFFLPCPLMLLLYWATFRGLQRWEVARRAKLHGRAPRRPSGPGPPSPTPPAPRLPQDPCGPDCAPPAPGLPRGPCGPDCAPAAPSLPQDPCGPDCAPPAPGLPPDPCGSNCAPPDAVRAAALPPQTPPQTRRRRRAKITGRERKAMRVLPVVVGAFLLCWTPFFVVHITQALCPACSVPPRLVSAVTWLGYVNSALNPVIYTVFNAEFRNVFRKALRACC

DOR = DOR (Homo sapiens, UniProt P41143); test: PDSP radioligand competition binding; conditions: radioligand [^3H]DADLE; read-out: In vitro Affinity
Sequence of DOR (P41143 whole entry): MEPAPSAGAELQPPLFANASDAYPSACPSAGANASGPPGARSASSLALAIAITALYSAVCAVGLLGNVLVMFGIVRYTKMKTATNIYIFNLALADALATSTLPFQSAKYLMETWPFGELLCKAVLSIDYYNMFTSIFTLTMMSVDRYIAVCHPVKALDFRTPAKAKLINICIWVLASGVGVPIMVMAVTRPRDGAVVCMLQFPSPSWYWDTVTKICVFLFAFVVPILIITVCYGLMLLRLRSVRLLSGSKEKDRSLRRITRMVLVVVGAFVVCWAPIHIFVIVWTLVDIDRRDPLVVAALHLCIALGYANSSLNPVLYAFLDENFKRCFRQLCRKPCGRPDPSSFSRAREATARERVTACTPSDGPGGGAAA

hVMAT2 = molecular target: T8, hVMAT2 (Homo sapiens, UniProt Q05940); test: Vesicular 3H-DA uptake in vesicles isolated from HEK cells overexpressing VMAT2; format: biochemical
T8 construct: expressed in transfected cells; pcDNA3.1 construct with zeocin resistance
T8 sequence (Q05940 whole entry): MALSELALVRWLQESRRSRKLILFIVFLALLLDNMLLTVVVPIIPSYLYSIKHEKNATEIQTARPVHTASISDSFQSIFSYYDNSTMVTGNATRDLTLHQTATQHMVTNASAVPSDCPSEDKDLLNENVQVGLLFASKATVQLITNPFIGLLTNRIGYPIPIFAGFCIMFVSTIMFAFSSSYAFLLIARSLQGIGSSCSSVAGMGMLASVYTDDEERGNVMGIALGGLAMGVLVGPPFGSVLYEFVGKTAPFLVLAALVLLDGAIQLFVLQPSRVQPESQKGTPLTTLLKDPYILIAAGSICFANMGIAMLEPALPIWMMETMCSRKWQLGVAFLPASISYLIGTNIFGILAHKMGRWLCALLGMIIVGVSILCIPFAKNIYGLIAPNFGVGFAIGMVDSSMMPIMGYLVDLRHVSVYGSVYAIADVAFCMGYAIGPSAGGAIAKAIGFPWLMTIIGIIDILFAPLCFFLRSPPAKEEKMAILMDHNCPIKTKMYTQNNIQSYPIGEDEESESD

α1B = α1B (Homo sapiens, UniProt P35368); test: PDSP radioligand competition binding; conditions: radioligand [^3H]Prazosin; read-out: In vitro Affinity
Sequence of α1B (P35368 whole entry): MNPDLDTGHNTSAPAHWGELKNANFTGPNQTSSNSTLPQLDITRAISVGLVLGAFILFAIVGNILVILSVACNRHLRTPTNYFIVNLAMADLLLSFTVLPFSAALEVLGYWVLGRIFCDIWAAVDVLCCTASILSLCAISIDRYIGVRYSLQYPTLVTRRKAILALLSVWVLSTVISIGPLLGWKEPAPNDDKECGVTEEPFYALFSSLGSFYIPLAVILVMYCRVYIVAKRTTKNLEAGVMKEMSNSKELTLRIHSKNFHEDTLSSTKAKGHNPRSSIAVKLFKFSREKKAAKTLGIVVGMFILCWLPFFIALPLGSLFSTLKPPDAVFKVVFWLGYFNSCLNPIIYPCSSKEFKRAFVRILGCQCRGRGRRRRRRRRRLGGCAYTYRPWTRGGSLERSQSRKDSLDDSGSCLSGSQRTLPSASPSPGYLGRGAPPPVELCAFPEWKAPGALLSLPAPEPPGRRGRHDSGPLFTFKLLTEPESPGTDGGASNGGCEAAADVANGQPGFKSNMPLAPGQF

5-HT6 [2] = molecular target: T3, 5-HT6; test: PDSP receptor functional assay; format: cell-based
[3] = rats; cited from earlier work

T1 sequence (P14416 whole entry, species assumed): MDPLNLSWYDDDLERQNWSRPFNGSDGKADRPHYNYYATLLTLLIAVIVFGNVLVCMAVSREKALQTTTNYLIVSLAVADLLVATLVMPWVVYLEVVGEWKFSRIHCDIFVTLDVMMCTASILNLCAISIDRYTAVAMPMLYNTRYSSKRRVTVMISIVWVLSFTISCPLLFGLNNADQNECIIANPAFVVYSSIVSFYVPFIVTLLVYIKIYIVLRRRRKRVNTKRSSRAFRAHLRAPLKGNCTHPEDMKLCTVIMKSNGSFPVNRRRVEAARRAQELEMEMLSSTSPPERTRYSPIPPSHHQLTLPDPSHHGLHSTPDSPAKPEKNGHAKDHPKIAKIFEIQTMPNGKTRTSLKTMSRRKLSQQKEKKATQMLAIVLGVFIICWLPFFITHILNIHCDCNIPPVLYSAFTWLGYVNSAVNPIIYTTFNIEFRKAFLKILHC

In the case of `COc1cc2c3c(c1OC)-c1ccccc1C[C@H]3N(C)CC2` [nuciferine], the “Function Type” value (dopamine D2 receptor) is reported as “Partial agonist”, the Emax (dopamine D2 receptor; D2 partial agonist activity, Fig 4A) is reported as 67 % of dopamine and the Ki (5-HT2B) is reported as 41 nM. For the same compound, the “In Vitro Affinity” value (D5) was “(neg) [^3H]SCH23390”, the “inhibition of AmpC β-lactamase” value (AmpC β-lactamase) was “did not inhibit” and the Ki (V1A) was 10000 nM. For the same compound, the catalepsy (male C57BL/6J mice; 10.0 mg/kg, any of the time-points examined) was “did not produce catalepsy”, the latency to movement (male C57BL/6J mice; 30 min post-injection) was 2.3 ± 2.3 s and the latency to movement (male C57BL/6J mice; 60 min post-injection) was 4.7 ± 2.6 s. It also gave a Ki (α2C) of 693 nM, an EC50 (hDAT) of 1.8 nM and a Ki (5-HT6 [1]) of 268 nM. The Ki (5-HT1A) was 77 nM, the “effect on dopamine uptake in HEK-DAT/VMAT2 cells” value (hDAT and hVMAT2) was “no effect” and the “Function Type” value (5-HT2C) was “Antagonist”. The IC50 (5-HT2C; 5-HT2C antagonist) was 131 nM, the EC50 (5-HT2C; antagonist) was 131 nM and the “substitution of cumulative DOI doses for the DOI training dose” value (male NIH Swiss mice; in the presence of 1.0 mg/kg nuciferine) was “partial substitution”. The “substitution of cumulative DOI doses for the DOI training dose” value (male NIH Swiss mice; in the presence of 3.0 mg/kg nuciferine) was “no cumulative dose of DOI substituted for the training dose”, the “Function Type” value (5-HT2A) was “Antagonist” and the IC50 (5-HT2A; 5-HT2A antagonist activity) was 478 nM. For the same compound, the EC50 (5-HT2A; antagonist) was 478 nM, the “Function Type” value (D4) was “agonist” and the EC50 (D4; agonist) was 2000 nM. For the same compound, the Ki (DOR) was 10000 nM, the “effect on DA uptake in isolated vesicles” value (hVMAT2) was “no effect” and the Ki (α1B) was 2000 nM. The EC50 (5-HT6 [2]) was 700 nM, the “Function Type” value (5-HT6 [2]) was “Partial agonist” and the Emax (5-HT6 [2]; read-out: maximal effect) was 17.3%. For the same compound, the “crossing of the blood brain barrier” value [3] was “shown to cross the blood brain barrier”.
